Measured values taken from PubChem BioAssay AID1918946 (Molecular Pharmacology Branch, DTP, NCI, 2023).

Test system: 885512-296-R-J2-PDC complex spheroid viability
Assay: Anticancer human tumor 885512-296-R-J2-PDC patient-derived breast carcinoma cell line growth inhibition
Settings: for IC50: curve of first compound; for viability, T/C: stronger effect = lower value
Outline: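 Complex spheroids of tumor cells with HUVEC and human MSCs, exposed to iadademstat combined with other agents. Each agent tested in half-log steps from near clinical Cmax (else 10 microM top), DMSO ≤0.25%.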

[1] = second compound 0.1 µM, first compound 0.0316 µM
[2] = second compound 0.1 µM, first compound 0.1 µM
[3] = second compound 0.1 µM, first compound 0.316 µM
[4] = second compound 0.1 µM, first compound 1 µM
[5] = second compound 0.1 µM, first compound 3.16 µM
[6] = second compound 0.1 µM, first compound 10 µM
[7] = second compound 0.316 µM, first compound 0.0316 µM
[8] = second compound 0.316 µM, first compound 0.1 µM
[9] = second compound 0.316 µM, first compound 0.316 µM
[10] = second compound 0.316 µM, first compound 1 µM
[11] = second compound 0.316 µM, first compound 3.16 µM
[12] = second compound 0.316 µM, first compound 10 µM
[13] = second compound 1 µM, first compound 0.0316 µM
[14] = second compound 1 µM, first compound 0.1 µM
[15] = second compound 1 µM, first compound 0.316 µM
[16] = second compound 1 µM, first compound 1 µM
[17] = second compound 1 µM, first compound 3.16 µM
[18] = second compound 1 µM, first compound 10 µM
[19] = second compound 3.16 µM, first compound 0.0316 µM
[20] = second compound 3.16 µM, first compound 0.1 µM
[21] = second compound 3.16 µM, first compound 0.316 µM
[22] = second compound 3.16 µM, first compound 1 µM
[23] = second compound 3.16 µM, first compound 3.16 µM
[24] = second compound 3.16 µM, first compound 10 µM
[25] = second compound 10 µM, first compound 0.0316 µM
[26] = second compound 10 µM, first compound 0.1 µM
[27] = second compound 10 µM, first compound 0.316 µM
[28] = second compound 10 µM, first compound 1 µM
[29] = second compound 10 µM, first compound 3.16 µM
[30] = second compound 10 µM, first compound 10 µM
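Note: spheroids exposed to agents for 7 days before viability read.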

`CC(C)c1c(-c2ccccc2)nc2c(C#N)c[nH]n2c1=O` + NC1CCC(NC2CC2c2ccccc2)CC1 was tested, and the IC50 (second compound 0.1 µM) was greater than 10 µM, the IC50 (second compound 0.316 µM) was greater than 10 µM and the IC50 (second compound 1 µM) was greater than 10 µM. The IC50 (second compound 3.16 µM) was greater than 10 µM, the IC50 (second compound 10 µM) was greater than 10 µM and the viability, T/C [1] was 121%. For the same compound, the viability, T/C [2] was 123%, the viability, T/C [3] was 137% and the viability, T/C [4] was 128%. It also gave a viability, T/C [5] of 116%, a viability, T/C [6] of 119% and a viability, T/C [7] of 133%. For the same compound, the viability, T/C [8] was 126%, the viability, T/C [9] was 137% and the viability, T/C [10] was 131%. For the same compound, the viability, T/C [11] was 118%, the viability, T/C [12] was 113% and the viability, T/C [13] was 135%. The viability, T/C [14] was 114%, the viability, T/C [15] was 129% and the viability, T/C [16] was 123%. The viability, T/C [17] was 148%, the viability, T/C [18] was 110% and the viability, T/C [19] was 111%. For the same compound, the viability, T/C [20] was 122%, the viability, T/C [21] was 120% and the viability, T/C [22] was 145%. It also gave a viability, T/C [23] of 115%, a viability, T/C [24] of 118% and a viability, T/C [25] of 99.3%. The viability, T/C [26] was 85.5%, the viability, T/C [27] was 97.2% and the viability, T/C [28] was 109%. The viability, T/C [29] was 104% and the viability, T/C [30] was 114%.
`CC1COCCN1c1cc(-c2ccnn2C)c2ccnc(-c3ccn[nH]3)c2n1` (stereo not given) + NC1CCC(NC2CC2c2ccccc2)CC1 showed an IC50 (second compound 0.1 µM) of less than 0.00316 µM, an IC50 (second compound 0.316 µM) of less than 0.00316 µM and an IC50 (second compound 1 µM) of less than 0.00316 µM. For the same compound, the IC50 (second compound 3.16 µM) was less than 0.00316 µM, the IC50 (second compound 10 µM) was less than 0.00316 µM and the viability, T/C (second compound 0.1 µM, first compound 0.00316 µM) was 42%. It also gave a viability, T/C (second compound 0.1 µM, first compound 0.01 µM) of 8.7%, a viability, T/C [1] of 9.16% and a viability, T/C [2] of 5.02%. For the same compound, the viability, T/C [3] was 7.43%, the viability, T/C [4] was 11.5% and the viability, T/C (second compound 0.316 µM, first compound 0.00316 µM) was 42%. For the same compound, the viability, T/C (second compound 0.316 µM, first compound 0.01 µM) was 10.9%, the viability, T/C [7] was 4.73% and the viability, T/C [8] was 4.6%. The viability, T/C [9] was 6.77%, the viability, T/C [10] was 5.15% and the viability, T/C (second compound 1 µM, first compound 0.00316 µM) was 38.8%. It also gave a viability, T/C (second compound 1 µM, first compound 0.01 µM) of 10.6%, a viability, T/C [13] of 5.72% and a viability, T/C [14] of 5.22%. The viability, T/C [15] was 4.61%, the viability, T/C [16] was 8.49% and the viability, T/C (second compound 3.16 µM, first compound 0.00316 µM) was 38.8%. The viability, T/C (second compound 3.16 µM, first compound 0.01 µM) was 7.56%, the viability, T/C [19] was 3.3% and the viability, T/C [20] was 6.46%. For the same compound, the viability, T/C [21] was 4.63%, the viability, T/C [22] was 4.98% and the viability, T/C (second compound 10 µM, first compound 0.00316 µM) was 23.8%. The viability, T/C (second compound 10 µM, first compound 0.01 µM) was 5.72%, the viability, T/C [25] was 3.24% and the viability, T/C [26] was 2.51%. The viability, T/C [27] was 2.18% and the viability, T/C [28] was 2.8%.
In the case of `COc1ccc([C@@H](O)c2cc(-c3ncnc4cc(N5CCOCC5)ccc34)c(F)cc2Cl)nn1` + NC1CCC(NC2CC2c2ccccc2)CC1, the IC50 (second compound 0.1 µM) is reported as 3.53 µM, the IC50 (second compound 0.316 µM) is reported as 3 µM and the IC50 (second compound 1 µM) is reported as 2.66 µM. The IC50 (second compound 3.16 µM) was 3.23 µM, the IC50 (second compound 10 µM) was 2.19 µM and the viability, T/C [1] was 114%. For the same compound, the viability, T/C [2] was 104%, the viability, T/C [3] was 90.3% and the viability, T/C [4] was 91.8%. For the same compound, the viability, T/C [5] was 50.1%, the viability, T/C [6] was 12.1% and the viability, T/C [7] was 128%. The viability, T/C [8] was 119%, the viability, T/C [9] was 101% and the viability, T/C [10] was 85.2%. It also gave a viability, T/C [11] of 46.3%, a viability, T/C [12] of 11.4% and a viability, T/C [13] of 142%. For the same compound, the viability, T/C [14] was 102%, the viability, T/C [15] was 102% and the viability, T/C [16] was 89.8%. For the same compound, the viability, T/C [17] was 36.6%, the viability, T/C [18] was 9.41% and the viability, T/C [19] was 117%. It also gave a viability, T/C [20] of 109%, a viability, T/C [21] of 105% and a viability, T/C [22] of 92.8%. The viability, T/C [23] was 49.7%, the viability, T/C [24] was 10.4% and the viability, T/C [25] was 130%. It also gave a viability, T/C [26] of 94.9%, a viability, T/C [27] of 87.2% and a viability, T/C [28] of 84.3%. It also gave a viability, T/C [29] of 35% and a viability, T/C [30] of 5.65%.
